As usually defined, the EC50 is the concentration giving half of the maximal effect. By IC50 is commonly meant the concentration at which inhibition is half-maximal.

Here are results for 15 compounds from US12252481B2, “Anti-viral compounds” (Aligos Therapeutics, Inc., priority 2021, dated 2025).

Experiment [1] deals with B.1.1.7 lineage SARS-CoV-2. In words: microbe, parasite or virus in culture. In kind it is cell-based.
Experiment [2] relates to human beta-coronavirus OC43. Description: OC43 coronavirus antiviral assay in HeLa cells (cytopathic effect, cell-titer-glo). Format: cell-based. The note with it: Betacoronavirus 1, OC43, HeLa, 144 h, 6 days at 33° C. (Cytopathic effects are the visible damage that an infection or toxin causes in cultured cells.)
For the next experiment, the target named is T1, human cathepsin L (Homo sapiens, UniProt P07711).
T1 construct: purchased R&D Systems
T1 sequence (P07711 114-333): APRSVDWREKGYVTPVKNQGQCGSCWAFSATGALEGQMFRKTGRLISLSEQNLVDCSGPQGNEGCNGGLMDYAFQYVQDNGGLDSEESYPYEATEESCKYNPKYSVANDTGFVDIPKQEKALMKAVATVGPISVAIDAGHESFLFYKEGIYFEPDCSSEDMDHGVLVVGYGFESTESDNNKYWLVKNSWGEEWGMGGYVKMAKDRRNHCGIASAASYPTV
In words: Cathepsin L assay (Z-FR-AMC fluorescence). The note with it: 10 pM human cathepsin L, 30 mins preincubation, Z-FR-AMC 2 μM. In kind it is biochemical. The procedure:
For the cathepsin L assay, 10 pM of human cathepsin L (R&D Systems; Minneapolis, MN) was preincubated for 30 mins with test compounds. Reactions were initiated by the addition of a peptide substrate Z—FR-AMC (final concentration 2 μM, Anaspec; Fremont, CA). Fluorescence was measured at 2-minute intervals for 30 mins using a 355/460 excitation/emission filter module on an Envision plate reader (Perkin Elmer; Waltham, MA). The IC50 values were calculated for each assay by fitting the curves using a four-parameter equation in GraphPad Prism.

In experiment [3] the test system is SARS-CoV-2-GHB-03021/2020. Format: cell-based. The note with it: read-out: VeroE6 + CP (EC50).
In the next experiment the target is T2, HRV3C (Human rhinovirus 14, UniProt P03303).
T2 construct: 3CLpro and HRV3C was added using a Multidrop Combi
T2 sequence (P03303 1538-1719): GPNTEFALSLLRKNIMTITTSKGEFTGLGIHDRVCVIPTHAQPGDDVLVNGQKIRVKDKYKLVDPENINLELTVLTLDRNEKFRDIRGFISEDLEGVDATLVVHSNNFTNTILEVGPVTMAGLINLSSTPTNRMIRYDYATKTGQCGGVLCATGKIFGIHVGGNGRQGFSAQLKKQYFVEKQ
Description: biochemical. Also on record: species or system HRV. The conditions noted are these: HRV3C, 30 mins preincubation, SAMDI-MS; read-out: HRV IC50 (bound).

The next experiment deals with T3, SARS-Cov-2 3CLpro (Severe acute respiratory syndrome coronavirus 2, UniProt P0DTD1).
T3 construct: 3CLpro and HRV3C was added using a Multidrop Combi
In words: biochemical. The conditions noted are these: 3CLpro, 30 mins preincubation, SAMDI-MS.

[4] abbreviates: Severe acute respiratory syndrome coronavirus 2, 96 h; read-out: A549-dual_ACE2_TMPRSS2 (EC50).
[5] abbreviates: read-out: SARS-Cov-2 IC50 (class).

Read-outs that look alike come from different tables or passages of the source.

For the compound `N#C[C@H](C[C@@H]1CCNC1=O)NC(=O)[C@@H]1[C@@H]2[C@H](CN1C(=O)[C@@H]1C[C@]13CCc1ccccc13)[C@@H]1C=C[C@H]2C1` (single isomer, unassigned) [Example 38, (1S,3aR,4S,7R,7aS)-N-((S)-1-cyano-2-((S)-2-oxopyrrolidin-3-yl)ethyl)-2-((1R*,2R*)-2′,3′-dihydrospiro[cyclopropane-1,1′-indene]-2-carbonyl)-2,3,3a,4,7,7a-hexahydro-1H-4,7-methanoisoindole-1-carboxamide], the EC50 in experiment [1] (Severe acute respiratory syndrome coronavirus 2, 96 h, read-out: A549-dual_ACE2_TMPRSS2 (EC50)) fell in the range of 1 to 10 µM; in experiment [2] (read-out: EC50 (class)), 1 to 10 µM; in experiment [3] it was 0.1 to 1 µM. This compound also registered an IC50 against human cathepsin L of no less than 10 µM.

With `COC(C)(C)[C@H](NC(=O)C(F)(F)C(F)(F)F)C(=O)N1C[C@H]2[C@@H]([C@H]1C(=O)N[C@H](C#N)C[C@@H]1CCNC1=O)[C@H]1C=C[C@@H]2C1` [Compound 131], the EC50 in experiment [1] (setting [4]) and in experiment [2] (read-out: EC50 (class)) was less than 0.1 µM throughout. The values for the IC50 on HRV3C, against human cathepsin L and on SARS-Cov-2 3CLpro (setting [5]) were greater than 0.5 µM, no less than 10 µM and less than 0.02 µM, respectively.

`CC(C)(C)[C@H](NC(=O)C(F)(F)F)C(=O)N1C[C@@H]2[C@@H]([C@@H]3C=C[C@H]2CC3)[C@@H]1C(=O)N[C@H](C#N)C[C@@H]1CCNC1=O` (relative stereo) [Compound 59a, (1R*,3aS*,4R*,7S*,7aR*)-N-((S)-1-cyano-2-((S)-2-oxopyrrolidin-3-yl)ethyl)-2-((S)-3,3-dimethyl-2-(2,2,2-trifluoroacetamido)butanoyl)-2,3,3a,4,7,7a-hexahydro-1H-4,7-ethanoisoindole-1-carboxamide]: the EC50 in experiment [1] (setting [4]) is 1 to 10 µM; in experiment [2] (read-out: EC50 (bound)), greater than 10 µM. Moreover, the half-inhibitory concentration (IC50) at HRV3C was greater than 10 µM; against human cathepsin L it was no less than 10 µM; at SARS-Cov-2 3CLpro (setting [5]), 0.2 to 2 µM.

For the compound `CC(C)(C)[C@H](NC(=O)C12CC(C1)C2)C(=O)N1C[C@H]2[C@@H]([C@H]1C(=O)N[C@H](C#N)C[C@@H]1CCNC1=O)[C@H]1C=C[C@@H]2C1` [Compound 66, (1S,3aR,4S,7R,7aS)-2-((S)-2-(bicyclo[1.1.1]pentane-1-carboxamido)-3,3-dimethylbutanoyl)-N-((S)-1-cyano-2-((S)-2-oxopyrrolidin-3-yl)ethyl)-2,3,3a,4,7,7a-hexahydro-1H-4,7-methanoisoindole-1-carboxamide], the EC50 in experiment [1] (setting [4]) and in experiment [2] (read-out: EC50 (class)) was 0.1 to 1 µM in each case. The results for the IC50 on HRV3C, against human cathepsin L and at SARS-Cov-2 3CLpro (setting [5]) were greater than 10 µM, no less than 10 µM and less than 0.02 µM, respectively.

Consider `CC(C)(C)[C@H](NC(=O)C(F)(F)F)C(=O)N1C[C@@H]2[C@@H]([C@@H]3CC[C@H]2O3)[C@@H]1C(=O)N[C@H](C#N)C[C@@H]1CCNC1=O` (relative stereo) [Compound 58a], for which the EC50 in experiment [1] (Severe acute respiratory syndrome coronavirus 2, 96 h; […]; numeric bounds given instead of class symbols; read-out: A549-dual_ACE2_TMPRSS2 (EC50)) is greater than 10 µM; in experiment [2] (read-out: EC50 (bound)), greater than 10 µM. Moreover, the concentration for half-maximal inhibition (IC50) at HRV3C is greater than 10 µM; at human cathepsin L it was no less than 10 µM; at SARS-Cov-2 3CLpro (read-out: SARS-Cov-2 IC50 (bound)), greater than 10 µM.

`CC(F)(F)[C@H](NC(=O)C(F)(F)F)C(=O)N1C[C@H]2[C@@H]([C@H]1C(=O)N[C@H](C#N)C[C@@H]1CCNC1=O)[C@H]1C=C[C@@H]2C1` [Compound 133]: the results for the EC50 in experiment [1] (setting [4]) and in experiment [2] (read-out: EC50 (class)) were 0.1 to 1 µM and less than 0.1 µM, respectively. Besides, the figures for the IC50 on HRV3C, against human cathepsin L and on SARS-Cov-2 3CLpro (setting [5]) were greater than 0.5 µM, no less than 10 µM and less than 0.02 µM, respectively.

`COCC(C)(C)[C@H](NC(=O)C(F)(F)C(F)(F)F)C(=O)N1C[C@H]2[C@@H]([C@H]1C(=O)N[C@H](C#N)C[C@@H]1CCNC1=O)[C@H]1C=C[C@@H]2C1` [Compound 100, (1S,3aR,4S,7R,7aS)-N-((S)-1-cyano-2-((S)-2-oxopyrrolidin-3-yl)ethyl)-2-((S)-4-methoxy-3,3-dimethyl-2-(2,2,3,3,3-pentafluoropropanamido)butanoyl)-2,3,3a,4,7,7a-hexahydro-1H-4,7-methanoisoindole-1-carboxamide]: the EC50 in experiment [1] (setting [4]) and in experiment [2] (read-out: EC50 (class)) was less than 0.1 µM in each case. Besides, the IC50 on HRV3C is greater than 0.5 µM; against human cathepsin L, no less than 10 µM; at SARS-Cov-2 3CLpro (setting [5]), less than 0.02 µM.

With `CC(C)(C)[C@H](NC(=O)C(F)(F)F)C(=O)N1C[C@H]2[C@@H]([C@H]1C(=O)N[C@H](C#N)CC1CC3(CC(F)(F)C3)NC1=O)[C@H]1C=C[C@@H]2C1` (mixture of isomers) [Example 83, (1R,2S,3S,6R,7S)—N-[(1S)-1-cyano-2-{2,2-difluoro-6-oxo-5-azaspiro[3.4]octan-7-yl}ethyl]-4-[(2S)-3,3-dimethyl-2-(2,2,2-trifluoroacetamido)butanoyl]-4-azatricyclo[5.2.1.0^{2,6}]dec-8-ene-3-carboxamide], the EC50 in experiment [1] (setting [4]) and in experiment [2] (read-out: EC50 (class)) was less than 0.1 µM each time. Further, the values for the IC50 at HRV3C, at human cathepsin L and on SARS-Cov-2 3CLpro (setting [5]) were greater than 10 µM, no less than 10 µM and less than 0.02 µM, respectively.

Regarding `CC(C)(C)[C@H](NC(=O)C(F)(F)F)C(=O)N1C[C@H]2[C@@H]([C@H]1C(=O)N[C@H](C#N)C[C@@H]1CCNC1=O)[C@H]1C=C[C@@H]2C1(F)F` [Example 82, (1S,3aS,4S,7R,7aR)—N-((S)-1-cyano-2-((S)-2-oxopyrrolidin-3-yl)ethyl)-2-((S)-3,3-dimethyl-2-(2,2,2-trifluoroacetamido)butanoyl)-8,8-difluoro-2,3,3a,4,7,7a-hexahydro-1H-4,7-methanoisoindole-1-carboxamide], the EC50 in experiment [1] (setting [4]) and in experiment [2] (read-out: EC50 (class)) was less than 0.1 µM throughout. Moreover, the IC50 on HRV3C was greater than 10 µM; against human cathepsin L, no less than 10 µM; on SARS-Cov-2 3CLpro (setting [5]), less than 0.02 µM.

`C[C@@H](OCC1CC1)[C@H](NC(=O)C(F)(F)F)C(=O)N1C[C@H]2[C@@H]([C@H]1C(=O)N[C@H](C#N)C[C@@H]1CCNC1=O)[C@H]1C=C[C@@H]2C1` [Example 99]: the EC50 in experiment [1] (setting [4]) and in experiment [2] (read-out: EC50 (class)) was less than 0.1 µM throughout. For the same compound, the IC50 was greater than 0.5 µM at HRV3C, no less than 10 µM against human cathepsin L and less than 0.02 µM on SARS-Cov-2 3CLpro (setting [5]).

In the case of `CC(C)(C)[C@H](NC(=O)C(F)(F)F)C(=O)N1C[C@@H]2[C@H]3CC[C@H](CC3)[C@@H]2[C@H]1C(=O)N[C@H](C#N)C[C@@H]1CCNC1=O` (mixture of isomers) [Compound 71], the EC50 was less than 0.1 µM in experiment [1] (setting [4]) and 0.1 to 1 µM in experiment [2] (read-out: EC50 (class)). Besides, the figures for the IC50 at HRV3C, at human cathepsin L and at SARS-Cov-2 3CLpro (setting [5]) were greater than 10 µM, no less than 10 µM and less than 0.02 µM, respectively.

Take `C=CC1([C@H](NC(=O)C(F)(F)F)C(=O)N2C[C@H]3[C@@H]([C@H]2C(=O)N[C@H](C#N)C[C@@H]2CCNC2=O)[C@H]2C=C[C@@H]3C2)CCC1` [Compound 68, (1S,3aR,4S,7R,7aS)-N-((S)-1-cyano-2-((S)-2-oxopyrrolidin-3-yl)ethyl)-2-((S)-2-(2,2,2-trifluoroacetamido)-2-(1-vinylcyclobutyl)acetyl)-2,3,3a,4,7,7a-hexahydro-1H-4,7-methanoisoindole-1-carboxamide]: the EC50 in experiment [1] (setting [4]) and in experiment [2] (read-out: EC50 (class)) was less than 0.1 µM throughout. The IC50 at HRV3C was greater than 10 µM; on human cathepsin L, no less than 10 µM; at SARS-Cov-2 3CLpro (setting [5]), less than 0.02 µM.

Consider `CC(C)(C)[C@H](NC(=O)C(F)(F)Cl)C(=O)N1C[C@H]2[C@@H]([C@H]1C(=O)N[C@H](C#N)C[C@@H]1CCNC1=O)[C@H]1C=C[C@@H]2C1(F)F` [Compound 128, (1R,2R,3S,6S,7S)-4-[(2S)-2-(2-chloro-2,2-difluoroacetamido)-3,3-dimethylbutanoyl]-N-[(1S)-1-cyano-2-[(3S)-2-oxopyrrolidin-3-yl]ethyl]-10,10-difluoro-4-azatricyclo[5.2.1.0^{2,6}]dec-8-ene-3-carboxamide], for which the EC50 in experiment [1] (setting [4]) and in experiment [2] (read-out: EC50 (class)) was less than 0.1 µM throughout. In addition, the half-inhibitory concentration (IC50) at HRV3C was greater than 0.5 µM; against human cathepsin L, no less than 10 µM; at SARS-Cov-2 3CLpro (setting [5]), less than 0.02 µM.

In the case of `CC(C)(C)[C@H](NC(=O)C(C)(C)C(F)(F)F)C(=O)N1C[C@H]2[C@@H]([C@H]1C(=O)N[C@H](C#N)C[C@@H]1CCNC1=O)[C@H]1C=C[C@@H]2C1` [Compound 75], the concentration giving a half-maximal response (EC50) in experiment [1] (setting [4]) was less than 0.1 µM; in experiment [2] (read-out: EC50 (class)) it was 0.1 to 1 µM. The IC50 was greater than 10 µM at HRV3C, no less than 10 µM on human cathepsin L and less than 0.02 µM at SARS-Cov-2 3CLpro (setting [5]).

Take `CC(C)(C)[C@H](NC(=O)C(F)(F)F)C(=O)N1C[C@H]2[C@@H]([C@H]1C(=O)N[C@H](C#N)C[C@@H]1CCNC1=O)[C@H]1C=C[C@@H]2C1F` (stereo in doubt) [Example 91, (1S,3aS,4S,7R,7aR,8S)—N-((S)-1-cyano-2-((S)-2-oxopyrrolidin-3-yl)ethyl)-2-((S)-3,3-dimethyl-2-(2,2,2-trifluoroacetamido)butanoyl)-8-fluoro-2,3,3a,4,7,7a-hexahydro-1H-4,7-methanoisoindole-1-carboxamide]: the EC50 in experiment [1] (setting [4]) and in experiment [2] (read-out: EC50 (class)) was less than 0.1 µM throughout. The IC50 on HRV3C is greater than 0.5 µM; on human cathepsin L, no less than 10 µM; at SARS-Cov-2 3CLpro (setting [5]), less than 0.02 µM.
